Reference: ChEMBL document CHEMBL4265899, “Trisubstituted thiazoles as potent and selective inhibitors of Plasmodium falciparum protein kinase G (PfPKG)” (Bioorg Med Chem Lett, 2018)

Assays:
[1] = target: Serine/threonine-protein kinase Nek2 (Homo sapiens) (UniProt P51955); test: Inhibition of human NEK2a at 100 nM
[2] = target: Misshapen-like kinase 1 (Homo sapiens) (UniProt Q8N4C8); test: Inhibition of human MINK1 at 100 nM
[3] = target: cGMP-dependent protein kinase (Plasmodium falciparum, UniProt W7JX98); test: Inhibition of Plasmodium falciparum protein kinase G
[4] = target: Serine/threonine-protein kinase N2 (Homo sapiens) (UniProt Q16513); test: Inhibition of human PRK2 at 100 nM
[5] = target: Fibroblast growth factor receptor 1 (Homo sapiens) (UniProt P11362); test: Inhibition of human FGFR1 at 100 nM
[6] = target: 3-phosphoinositide-dependent protein kinase 1 (Homo sapiens) (UniProt O15530); test: Inhibition of human PDK1 at 100 nM
[7] = target: AMP-activated protein kinase, AMPK (Homo sapiens) (UniProt P54646+O43741+P54619+Q9UGJ0+Q9Y478+Q13131+Q9UGI9); test: Inhibition of human AMPK at 100 nM; assay type: protein-complex assay
[8] = target: Insulin receptor-related protein (Homo sapiens) (UniProt P14616); test: Inhibition of human IRR at 100 nM
[9] = target: Serine/threonine-protein kinase pim-1 (Homo sapiens) (UniProt P11309); test: Inhibition of human PIM1 at 100 nM
[10] = target: Homeodomain-interacting protein kinase 2 (Homo sapiens) (UniProt Q9H2X6); test: Inhibition of human HIPK2 at 100 nM
[11] = target: Mitogen-activated protein kinase kinase kinase 1 (Homo sapiens) (UniProt Q13233); test: Inhibition of human MEKK1 at 100 nM
[12] = target: MAP kinase-interacting serine/threonine-protein kinase 2 (Homo sapiens) (UniProt Q9HBH9); test: Inhibition of human MNK2 at 100 nM
[13] = target: Tyrosine-protein kinase CSK (Homo sapiens) (UniProt P41240); test: Inhibition of human CSK at 100 nM
[14] = target: SRSF protein kinase 1 (Homo sapiens) (UniProt Q96SB4); test: Inhibition of human SRPK1 at 100 nM
[15] = target: Serine/threonine-protein kinase TBK1 (Homo sapiens) (UniProt Q9UHD2); test: Inhibition of human TBK1 at 100 nM
[16] = target: High affinity nerve growth factor receptor (Homo sapiens) (UniProt P04629); test: Inhibition of human TrkA at 100 nM
[17] = target: Serine/threonine-protein kinase Sgk1 (Homo sapiens) (UniProt O00141); test: Inhibition of human SGK1 at 100 nM
[18] = target: MAP kinase-interacting serine/threonine-protein kinase 1 (Homo sapiens) (UniProt Q9BUB5); test: Inhibition of human MNK1 at 100 nM
[19] = target: Calcium/calmodulin-dependent protein kinase kinase 2 (Homo sapiens) (UniProt Q96RR4); test: Inhibition of human CAMKKb at 100 nM
[20] = target: Mitogen-activated protein kinase 3 (Homo sapiens) (UniProt P27361); test: Inhibition of human ERK1 at 100 nM
[21] = target: RAC-beta serine/threonine-protein kinase (Homo sapiens) (UniProt P31751); test: Inhibition of human PKBbeta at 100 nM
[22] = target: MAP kinase-activated protein kinase 5 (Homo sapiens) (UniProt Q8IW41); test: Inhibition of human PRAK at 100 nM
[23] = target: Receptor-interacting serine/threonine-protein kinase 2 (Homo sapiens) (UniProt O43353); test: Inhibition of human RIPK2 at 100 nM
[24] = target: Tyrosine-protein kinase Yes (Homo sapiens) (UniProt P07947); test: Inhibition of human YES1 at 100 nM
[25] = target: Tyrosine-protein kinase SYK (Homo sapiens) (UniProt P43405); test: Inhibition of human SYK at 100 nM
[26] = target: Protein kinase C zeta type (Homo sapiens) (UniProt Q05513); test: Inhibition of human PKCzeta at 100 nM
[27] = target: Mitogen-activated protein kinase kinase kinase 9 (Homo sapiens) (UniProt P80192); test: Inhibition of human MLK1 at 100 nM
[28] = target: Rho-associated protein kinase 2 (Homo sapiens) (UniProt O75116); test: Inhibition of human ROCK2 at 100 nM
[29] = target: Insulin receptor (Homo sapiens) (UniProt P06213); test: Inhibition of human IR at 100 nM
[30] = target: Serine/threonine-protein kinase PAK 4 (Homo sapiens) (UniProt O96013); test: Inhibition of human PAK4 at 100 nM
[31] = Permeability of the compound by PAMPA

Chain of Rho-associated protein kinase 2 (Homo sapiens) (O75116 whole entry, looked up): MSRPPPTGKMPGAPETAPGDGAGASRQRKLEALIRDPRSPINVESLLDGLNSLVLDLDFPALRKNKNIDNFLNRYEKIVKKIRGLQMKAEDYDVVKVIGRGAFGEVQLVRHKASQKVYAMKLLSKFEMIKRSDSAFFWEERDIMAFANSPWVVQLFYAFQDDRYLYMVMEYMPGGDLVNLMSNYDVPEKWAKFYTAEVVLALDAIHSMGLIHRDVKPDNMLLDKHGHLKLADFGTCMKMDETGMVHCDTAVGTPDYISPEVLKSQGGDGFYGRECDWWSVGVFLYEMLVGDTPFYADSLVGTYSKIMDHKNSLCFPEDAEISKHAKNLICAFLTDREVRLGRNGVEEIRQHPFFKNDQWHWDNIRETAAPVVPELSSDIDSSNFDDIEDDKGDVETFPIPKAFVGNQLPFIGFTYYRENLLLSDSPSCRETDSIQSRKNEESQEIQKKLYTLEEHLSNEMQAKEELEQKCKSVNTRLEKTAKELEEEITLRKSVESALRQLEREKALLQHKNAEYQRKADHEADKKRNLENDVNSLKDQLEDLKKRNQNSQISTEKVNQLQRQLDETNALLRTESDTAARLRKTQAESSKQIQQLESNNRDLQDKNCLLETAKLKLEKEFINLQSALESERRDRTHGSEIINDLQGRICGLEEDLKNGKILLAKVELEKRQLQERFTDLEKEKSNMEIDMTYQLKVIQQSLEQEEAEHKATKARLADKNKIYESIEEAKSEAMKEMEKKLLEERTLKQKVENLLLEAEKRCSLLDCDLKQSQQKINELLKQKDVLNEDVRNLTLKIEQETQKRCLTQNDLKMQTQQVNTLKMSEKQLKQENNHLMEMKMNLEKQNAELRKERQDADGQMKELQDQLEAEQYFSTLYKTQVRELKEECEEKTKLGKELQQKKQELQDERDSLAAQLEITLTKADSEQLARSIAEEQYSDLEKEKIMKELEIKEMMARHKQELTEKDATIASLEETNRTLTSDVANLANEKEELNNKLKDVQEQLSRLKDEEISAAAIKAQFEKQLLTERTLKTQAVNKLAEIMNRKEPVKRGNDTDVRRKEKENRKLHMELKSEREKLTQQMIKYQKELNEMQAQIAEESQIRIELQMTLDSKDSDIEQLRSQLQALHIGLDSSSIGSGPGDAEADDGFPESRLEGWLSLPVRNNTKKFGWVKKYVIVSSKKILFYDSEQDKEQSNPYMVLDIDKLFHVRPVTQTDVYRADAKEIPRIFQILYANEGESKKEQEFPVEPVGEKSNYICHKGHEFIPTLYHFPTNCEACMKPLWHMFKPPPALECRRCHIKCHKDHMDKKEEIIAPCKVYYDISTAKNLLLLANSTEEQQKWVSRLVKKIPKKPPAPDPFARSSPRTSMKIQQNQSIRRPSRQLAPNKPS
Chain of Mitogen-activated protein kinase kinase kinase 9 (Homo sapiens) (P80192 whole entry, looked up): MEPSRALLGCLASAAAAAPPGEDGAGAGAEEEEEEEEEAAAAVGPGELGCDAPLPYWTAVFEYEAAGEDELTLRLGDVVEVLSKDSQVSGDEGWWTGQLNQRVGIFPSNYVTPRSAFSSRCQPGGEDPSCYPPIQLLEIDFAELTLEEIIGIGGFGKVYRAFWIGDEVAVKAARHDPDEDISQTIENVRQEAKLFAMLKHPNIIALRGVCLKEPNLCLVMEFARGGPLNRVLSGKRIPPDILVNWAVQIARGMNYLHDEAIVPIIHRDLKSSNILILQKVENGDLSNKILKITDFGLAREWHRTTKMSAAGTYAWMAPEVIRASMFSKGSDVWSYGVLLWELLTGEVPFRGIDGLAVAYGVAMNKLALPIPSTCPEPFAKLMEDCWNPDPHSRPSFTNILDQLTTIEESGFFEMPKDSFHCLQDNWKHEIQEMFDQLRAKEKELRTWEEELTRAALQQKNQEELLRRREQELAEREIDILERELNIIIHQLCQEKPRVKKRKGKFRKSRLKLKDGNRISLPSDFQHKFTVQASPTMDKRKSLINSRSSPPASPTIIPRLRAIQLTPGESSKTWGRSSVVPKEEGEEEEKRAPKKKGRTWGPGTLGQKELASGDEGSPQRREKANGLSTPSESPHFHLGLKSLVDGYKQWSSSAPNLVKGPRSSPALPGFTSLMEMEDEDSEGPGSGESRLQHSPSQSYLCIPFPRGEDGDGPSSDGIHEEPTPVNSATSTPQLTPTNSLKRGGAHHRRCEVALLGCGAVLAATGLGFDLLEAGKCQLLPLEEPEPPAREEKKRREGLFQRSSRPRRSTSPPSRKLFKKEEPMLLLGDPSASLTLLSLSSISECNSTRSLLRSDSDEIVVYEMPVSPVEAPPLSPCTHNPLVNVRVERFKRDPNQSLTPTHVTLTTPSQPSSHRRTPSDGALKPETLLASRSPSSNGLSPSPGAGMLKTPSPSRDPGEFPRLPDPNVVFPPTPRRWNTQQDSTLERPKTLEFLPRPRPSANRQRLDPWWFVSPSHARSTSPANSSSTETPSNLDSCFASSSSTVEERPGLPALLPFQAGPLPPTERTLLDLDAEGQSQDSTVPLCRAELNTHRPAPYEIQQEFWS
Chain of Serine/threonine-protein kinase TBK1 (Homo sapiens) (Q9UHD2 whole entry): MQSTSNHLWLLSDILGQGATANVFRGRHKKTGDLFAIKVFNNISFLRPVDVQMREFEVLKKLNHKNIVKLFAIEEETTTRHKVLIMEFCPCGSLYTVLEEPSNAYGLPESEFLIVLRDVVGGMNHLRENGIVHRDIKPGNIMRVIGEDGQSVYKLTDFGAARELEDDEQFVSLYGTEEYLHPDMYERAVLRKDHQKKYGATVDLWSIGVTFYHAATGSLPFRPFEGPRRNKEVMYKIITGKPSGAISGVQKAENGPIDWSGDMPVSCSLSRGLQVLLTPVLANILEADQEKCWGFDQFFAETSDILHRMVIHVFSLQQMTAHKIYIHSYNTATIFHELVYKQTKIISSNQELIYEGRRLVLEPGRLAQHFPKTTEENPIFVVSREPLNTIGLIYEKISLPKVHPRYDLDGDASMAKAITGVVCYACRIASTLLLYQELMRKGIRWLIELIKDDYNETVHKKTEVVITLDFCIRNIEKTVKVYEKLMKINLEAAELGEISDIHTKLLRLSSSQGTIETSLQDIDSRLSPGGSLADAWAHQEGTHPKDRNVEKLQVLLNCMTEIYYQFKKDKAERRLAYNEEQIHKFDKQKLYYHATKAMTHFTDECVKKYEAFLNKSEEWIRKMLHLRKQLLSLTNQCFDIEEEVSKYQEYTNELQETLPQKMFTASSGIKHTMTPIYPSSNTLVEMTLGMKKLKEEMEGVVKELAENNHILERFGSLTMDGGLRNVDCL
Chain of Protein kinase C zeta type (Homo sapiens) (Q05513 whole entry): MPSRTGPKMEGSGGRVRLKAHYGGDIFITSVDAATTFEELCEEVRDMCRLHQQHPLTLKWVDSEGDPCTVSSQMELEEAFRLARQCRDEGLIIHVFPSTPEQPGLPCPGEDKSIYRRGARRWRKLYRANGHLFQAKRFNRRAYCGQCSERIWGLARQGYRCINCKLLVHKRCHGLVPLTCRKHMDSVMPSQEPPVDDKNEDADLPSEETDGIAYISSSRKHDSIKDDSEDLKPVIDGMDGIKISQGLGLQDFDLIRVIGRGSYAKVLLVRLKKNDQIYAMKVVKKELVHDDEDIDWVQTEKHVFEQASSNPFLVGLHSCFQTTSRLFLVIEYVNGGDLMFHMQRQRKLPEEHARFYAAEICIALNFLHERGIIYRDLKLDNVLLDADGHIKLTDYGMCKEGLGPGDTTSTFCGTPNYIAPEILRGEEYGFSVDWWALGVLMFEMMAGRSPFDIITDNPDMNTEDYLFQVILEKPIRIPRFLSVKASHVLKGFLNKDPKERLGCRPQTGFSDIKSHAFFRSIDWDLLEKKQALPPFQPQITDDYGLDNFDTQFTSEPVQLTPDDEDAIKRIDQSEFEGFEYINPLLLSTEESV
Chain of MAP kinase-interacting serine/threonine-protein kinase 2 (Homo sapiens) (Q9HBH9 whole entry, looked up): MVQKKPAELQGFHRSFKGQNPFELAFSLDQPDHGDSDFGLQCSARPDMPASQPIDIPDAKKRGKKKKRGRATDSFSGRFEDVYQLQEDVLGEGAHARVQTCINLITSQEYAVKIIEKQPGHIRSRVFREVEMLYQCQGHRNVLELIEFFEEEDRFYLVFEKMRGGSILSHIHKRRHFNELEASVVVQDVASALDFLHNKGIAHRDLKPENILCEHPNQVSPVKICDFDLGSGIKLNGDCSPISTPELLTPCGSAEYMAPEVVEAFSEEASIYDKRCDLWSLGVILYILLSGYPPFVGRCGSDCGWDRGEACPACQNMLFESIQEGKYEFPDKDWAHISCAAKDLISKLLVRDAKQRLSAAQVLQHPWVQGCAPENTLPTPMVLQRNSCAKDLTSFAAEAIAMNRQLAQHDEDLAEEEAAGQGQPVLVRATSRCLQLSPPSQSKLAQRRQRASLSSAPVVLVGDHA
Chain of Tyrosine-protein kinase Yes (Homo sapiens) (P07947 2-543 limits assumed): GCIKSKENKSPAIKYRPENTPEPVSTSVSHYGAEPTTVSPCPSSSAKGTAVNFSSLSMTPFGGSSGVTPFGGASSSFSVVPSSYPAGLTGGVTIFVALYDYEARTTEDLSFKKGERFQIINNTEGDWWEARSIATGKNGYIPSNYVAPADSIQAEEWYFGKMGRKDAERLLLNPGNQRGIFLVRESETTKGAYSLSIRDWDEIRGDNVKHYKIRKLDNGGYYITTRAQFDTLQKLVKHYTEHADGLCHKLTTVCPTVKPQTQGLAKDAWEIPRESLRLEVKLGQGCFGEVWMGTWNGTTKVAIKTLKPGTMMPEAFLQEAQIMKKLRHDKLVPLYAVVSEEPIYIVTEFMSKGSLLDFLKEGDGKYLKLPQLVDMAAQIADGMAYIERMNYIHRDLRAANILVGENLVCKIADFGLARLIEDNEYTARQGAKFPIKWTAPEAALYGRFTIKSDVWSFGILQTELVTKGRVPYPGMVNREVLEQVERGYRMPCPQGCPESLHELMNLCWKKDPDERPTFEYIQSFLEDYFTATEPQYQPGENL

Structure (SMILES): CN1CCC(c2nc(-c3cccc(S(C)(=O)=O)c3)c(-c3ccnc(Nc4ccc(N5CCNCC5)cc4)n3)s2)CC1
- inhibition [1]: < 70%
- inhibition [2]: < 70%
- IC50 [3]: 900 pM
- inhibition [4]: < 70%
- inhibition [5]: < 70%
- inhibition [6]: < 70%
- inhibition [7]: < 70%
- inhibition [8]: < 70%
- inhibition [9]: < 70%
- inhibition [10]: < 70%
- inhibition [11]: < 70%
- inhibition [12]: < 70%
- inhibition [13]: < 70%
- inhibition [14]: < 70%
- inhibition [15]: < 70%
- inhibition [16]: < 70%
- inhibition [17]: < 70%
- inhibition [18]: < 70%
- inhibition [19]: < 70%
- inhibition [20]: < 70%
- inhibition [21]: < 70%
- inhibition [22]: < 70%
- inhibition [23]: 70 to 90%
- inhibition [24]: < 70%
- inhibition [25]: < 70%
- inhibition [26]: < 70%
- inhibition [27]: < 70%
- inhibition [28]: < 70%
- inhibition [29]: < 70%
- inhibition [30]: < 70%

Structure (SMILES): CN1CCC(c2nc(-c3ccc(F)c(NS(C)(=O)=O)c3)c(-c3ccnc(NCC4CC4)n3)s2)CC1
- inhibition [1]: < 70%
- inhibition [2]: < 70%
- inhibition [4]: < 70%
- inhibition [5]: < 70%
- inhibition [6]: < 70%
- inhibition [8]: < 70%
- inhibition [9]: < 70%
- inhibition [10]: < 70%
- inhibition [11]: < 70%
- inhibition [12]: < 70%
- inhibition [13]: < 70%
- inhibition [14]: < 70%
- inhibition [15]: < 70%
- inhibition [16]: < 70%
- inhibition [17]: < 70%
- inhibition [18]: < 70%
- inhibition [19]: < 70%
- inhibition [20]: < 70%
- inhibition [21]: < 70%
- inhibition [22]: < 70%
- inhibition [23]: < 70%
- inhibition [24]: < 70%
- inhibition [25]: < 70%
- Papp [31]: 5.7 ×10⁻⁶ cm/s
- inhibition [26]: < 70%
- inhibition [27]: < 70%
- inhibition [28]: < 70%
- inhibition [29]: < 70%
- inhibition [30]: < 70%
